Assay results reported in patent US8822451B2, “Modulators of ATP-binding cassette transporters” (Vertex Pharmaceuticals Incorporated, priority 2005, dated 2014).

Molecular target: T1, […]F508-CFTR (Homo sapiens, UniProt P13569, DEL508-508)
T1 construct: expressed in transfected cells
Assay: Assay results of Table 3: ΔF508-CFTR modulation, membrane potential optical assay (assay format not stated)
Format: cell-based
Conditions: NIH3T3 mouse fibroblasts stably expressing […]F508-CFTR (optical assays); for Efficacy: efficacy range; for EC50: potency range
Method in brief: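 Two VIPR II FRET voltage-dye formats in ΔF508-CFTR NIH3T3 cells yield EC50 and efficacy. Potentiator mode: 27° C.-corrected cells get compound in Cl⁻-free medium, forskolin 2-10 μM after 22 s (final Cl⁻ 28 mM). Corrector mode: compound 16 h at 37° C., activation with forskolin 10 μM plus genistein 20 μM.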

T1 sequence (P13569 with tags, fused parts or gaps DEL508-508): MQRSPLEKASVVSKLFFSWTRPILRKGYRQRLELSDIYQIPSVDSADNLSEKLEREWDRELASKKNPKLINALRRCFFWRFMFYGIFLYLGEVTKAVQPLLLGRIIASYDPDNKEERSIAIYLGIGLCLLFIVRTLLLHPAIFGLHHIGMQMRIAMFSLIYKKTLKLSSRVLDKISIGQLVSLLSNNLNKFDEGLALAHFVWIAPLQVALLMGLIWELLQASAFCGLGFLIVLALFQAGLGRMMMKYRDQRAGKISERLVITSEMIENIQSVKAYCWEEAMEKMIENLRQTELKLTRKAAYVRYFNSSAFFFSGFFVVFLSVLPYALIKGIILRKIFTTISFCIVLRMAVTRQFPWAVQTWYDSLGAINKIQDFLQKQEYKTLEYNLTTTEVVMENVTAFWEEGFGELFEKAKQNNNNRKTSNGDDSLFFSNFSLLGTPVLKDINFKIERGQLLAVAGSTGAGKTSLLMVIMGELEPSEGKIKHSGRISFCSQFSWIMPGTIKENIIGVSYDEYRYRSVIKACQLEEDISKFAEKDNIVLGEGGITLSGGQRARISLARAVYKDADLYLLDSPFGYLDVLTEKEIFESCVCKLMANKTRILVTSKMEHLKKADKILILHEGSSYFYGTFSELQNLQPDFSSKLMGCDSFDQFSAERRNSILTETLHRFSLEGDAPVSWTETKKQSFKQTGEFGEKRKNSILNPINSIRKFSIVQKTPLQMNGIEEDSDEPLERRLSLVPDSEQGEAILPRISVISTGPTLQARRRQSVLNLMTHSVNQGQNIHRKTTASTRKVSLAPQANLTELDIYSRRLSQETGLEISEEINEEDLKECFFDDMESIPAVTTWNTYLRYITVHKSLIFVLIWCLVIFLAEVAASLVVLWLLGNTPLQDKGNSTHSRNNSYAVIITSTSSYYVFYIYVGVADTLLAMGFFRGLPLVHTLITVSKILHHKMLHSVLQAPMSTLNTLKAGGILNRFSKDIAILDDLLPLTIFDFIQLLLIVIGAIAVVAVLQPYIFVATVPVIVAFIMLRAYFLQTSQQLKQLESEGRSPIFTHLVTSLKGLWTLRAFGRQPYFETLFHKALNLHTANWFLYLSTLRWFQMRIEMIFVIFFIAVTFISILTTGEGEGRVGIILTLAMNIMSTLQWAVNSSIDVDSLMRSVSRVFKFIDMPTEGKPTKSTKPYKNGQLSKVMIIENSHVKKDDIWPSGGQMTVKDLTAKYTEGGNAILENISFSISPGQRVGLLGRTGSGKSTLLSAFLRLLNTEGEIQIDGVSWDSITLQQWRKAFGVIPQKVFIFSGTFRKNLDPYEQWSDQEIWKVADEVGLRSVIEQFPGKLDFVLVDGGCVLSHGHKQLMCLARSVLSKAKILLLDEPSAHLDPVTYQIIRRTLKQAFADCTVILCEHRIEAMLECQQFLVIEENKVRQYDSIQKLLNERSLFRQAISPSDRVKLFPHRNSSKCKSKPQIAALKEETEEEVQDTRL

Row | Compound | Efficacy | EC50
1 | C=C(C)CN(CC)c1nc(C(N)=O)cc(-c2ccccc2)n1 [Compound 188] | +++ (+++ corresponds to Efficacy greater than 100) | < 1 µM
2 | COc1ccc(-c2cc(C(N)=O)nc(NCC3CC3)n2)cc1 [Compound 189] | + (+ corresponds to Efficacy less than 50) | > 5 µM
3 | CCOCCN(CCOCC)c1nc(C(N)=O)cc(-c2ccccc2)n1 [Compound 190] | ++ (++ corresponds to Efficacy between 100 and 50) | < 1 µM
4 | COc1cccc(-c2cc(C(N)=O)nc(N)n2)c1 [Compound 191] | + (+ corresponds to Efficacy less than 50) | > 5 µM
5 | COc1ccccc1-c1cc(C(N)=O)nc(NCC2CCCO2)n1 (stereo not shown) [Compound 193] | +++ (+++ corresponds to Efficacy greater than 100) | 1 to 5 µM
6 | CCOc1cccc(-c2cc(C(N)=O)nc(N3CCCCC3)n2)c1 [Compound 194] | +++ (+++ corresponds to Efficacy greater than 100) | 1 to 5 µM
7 | COc1ccc(S(=O)(=O)N2CCN(c3nc(C(N)=O)cc(-c4ccccc4)n3)CC2)cc1 [Compound 195] | ++ (++ corresponds to Efficacy between 100 and 50) | > 5 µM
8 | CC(C)CN(CC(C)C)c1nc(C(N)=O)cc(-c2ccccc2)n1 [Compound 196] | + (+ corresponds to Efficacy less than 50) | 1 to 5 µM
9 | CCCN(CC1CC1)c1nc(C(N)=O)cc(-c2ccc(OC)cc2)n1 [Compound 197] | ++ (++ corresponds to Efficacy between 100 and 50) | 1 to 5 µM
10 | CCOc1ccc(-c2cc(C(N)=O)nc(N3CCCCC3)n2)cc1 [Compound 198] | + (+ corresponds to Efficacy less than 50) | 1 to 5 µM
11 | NC(=O)c1cc(-c2cc(Cl)cc(Cl)c2)nc(N2CCCCC2)n1 [Compound 199] | ++ (++ corresponds to Efficacy between 100 and 50) | 1 to 5 µM
12 | CCN(CC)c1nc(C(N)=O)cc(-c2ccc(Cl)cc2Cl)n1 [Compound 200] | ++ (++ corresponds to Efficacy between 100 and 50) | < 1 µM
13 | CCCCCCN(C)c1nc(C(N)=O)cc(-c2ccccc2)n1 [Compound 201] | +++ (+++ corresponds to Efficacy greater than 100) | 1 to 5 µM
14 | NC(=O)c1cc(-c2cc(Cl)ccc2Cl)nc(N2CCCCC2)n1 [Compound 202] | ++ (++ corresponds to Efficacy between 100 and 50) | 1 to 5 µM
15 | COc1cccc(-c2cc(C(N)=O)nc(NCC3CC3)n2)c1 [Compound 203] | +++ (+++ corresponds to Efficacy greater than 100) | > 5 µM
16 | C#CCN(C)c1nc(C(N)=O)cc(-c2ccccc2)n1 [Compound 204] | ++ (++ corresponds to Efficacy between 100 and 50) | 1 to 5 µM
17 | COc1ccccc1-c1cc(C(N)=O)nc(N2CCCCC2)n1 [Compound 205] | ++ (++ corresponds to Efficacy between 100 and 50) | > 5 µM
18 | CC(C)CCN(C)c1nc(C(N)=O)cc(-c2ccccc2)n1 [Compound 206] | ++ (++ corresponds to Efficacy between 100 and 50) | 1 to 5 µM
19 | CCN(CC)c1nc(C(N)=O)cc(-c2ccc(C)c(C)c2)n1 [Compound 207] | +++ (+++ corresponds to Efficacy greater than 100) | 1 to 5 µM
20 | COc1ccccc1-c1cc(C(N)=O)nc(N(C)C)n1 [Compound 208] | + (+ corresponds to Efficacy less than 50) | > 5 µM
21 | CCOC(=O)CN(C)c1nc(C(N)=O)cc(-c2ccccc2)n1 [Compound 209] | ++ (++ corresponds to Efficacy between 100 and 50) | 1 to 5 µM
22 | CCN(CC)c1nc(C(N)=O)cc(-c2cccc(Cl)c2Cl)n1 [Compound 210] | ++ (++ corresponds to Efficacy between 100 and 50) | < 1 µM

Row | Compound | Efficacy | EC50
23 | COc1cccc(-c2cc(C(N)=O)nc(N3CCOCC3)n2)c1 [Compound 211] | ++ (++ corresponds to Efficacy between 100 and 50) | > 5 µM
24 | CCOc1cccc(-c2cc(C(N)=O)nc(N(CC)CC)n2)c1 [Compound 212] | +++ (+++ corresponds to Efficacy greater than 100) | < 1 µM
25 | NC(=O)c1cc(-c2cccc(OC(F)(F)F)c2)nc(N2CCCCC2)n1 [Compound 213] | + (+ corresponds to Efficacy less than 50) | 1 to 5 µM
26 | CCN(CC)c1nc(C(N)=O)cc(-c2csc3ccccc23)n1 [Compound 214] | ++ (++ corresponds to Efficacy between 100 and 50) | < 1 µM
27 | CCNc1nc(C(N)=O)cc(-c2ccccc2)n1 [Compound 215] | ++ (++ corresponds to Efficacy between 100 and 50) | > 5 µM
28 | NC(=O)c1cc(-c2ccccc2)nc(NCc2ccco2)n1 [Compound 216] | ++ (++ corresponds to Efficacy between 100 and 50) | > 5 µM
29 | CCN(CC)c1nc(C(N)=O)cc(-c2cc(OC)ccc2OC)n1 [Compound 217] | ++ (++ corresponds to Efficacy between 100 and 50) | < 1 µM
30 | CCN(CCc1ccccn1)c1nc(C(N)=O)cc(-c2ccccc2)n1 [Compound 218] | +++ (+++ corresponds to Efficacy greater than 100) | 1 to 5 µM
31 | NC(=O)c1cc(-c2cc(F)cc(F)c2)nc(N2CCCCC2)n1 [Compound 219] | + (+ corresponds to Efficacy less than 50) | 1 to 5 µM
32 | C=CCNc1nc(C(N)=O)cc(-c2ccc(OC)cc2)n1 [Compound 220] | + (+ corresponds to Efficacy less than 50) | > 5 µM
33 | Cc1ccc(-c2cc(C(N)=O)nc(N3CCCCC3)n2)cc1 [Compound 221] | + (+ corresponds to Efficacy less than 50) | 1 to 5 µM
34 | CN(C)C(=O)c1cc(-c2ccccc2)nc(N2CCCCC2)n1 [Compound 222] | ++ (++ corresponds to Efficacy between 100 and 50) | > 5 µM
35 | CCN(CC)c1nc(C(N)=O)cc(-c2ccc(C(=O)OC)cc2)n1 [Compound 223] | +++ (+++ corresponds to Efficacy greater than 100) | 1 to 5 µM
36 | COc1ccc(C(C)C)cc1-c1cc(C(N)=O)nc(N2CCCCC2)n1 [Compound 224] | + (+ corresponds to Efficacy less than 50) | > 5 µM
37 | CCN(CC)c1nc(C(N)=O)cc(-c2cc(Cl)ccc2Cl)n1 [Compound 225] | +++ (+++ corresponds to Efficacy greater than 100) | < 1 µM
38 | CCN(CC)c1nc(C(N)=O)cc(-c2cc(Cl)cc(Cl)c2)n1 [Compound 226] | ++ (++ corresponds to Efficacy between 100 and 50) | 1 to 5 µM
39 | NC(=O)c1cc(-c2ccc3c(c2)OCO3)nc(N2CCCCC2)n1 [Compound 227] | ++ (++ corresponds to Efficacy between 100 and 50) | > 5 µM
40 | CCN(CCO)c1nc(C(N)=O)cc(-c2ccccc2OC)n1 [Compound 228] | ++ (++ corresponds to Efficacy between 100 and 50) | > 5 µM
41 | CCN(CC)c1nc(C(N)=O)cc(-c2ccc(OC)nc2)n1 [Compound 229] | ++ (++ corresponds to Efficacy between 100 and 50) | 1 to 5 µM
42 | CCN(CC)c1nc(C(N)=O)cc(-c2ccc(C)cc2)n1 [Compound 230] | +++ (+++ corresponds to Efficacy greater than 100) | 1 to 5 µM
43 | CNc1nc(C(N)=O)cc(-c2cccc(OC)c2)n1 [Compound 231] | ++ (++ corresponds to Efficacy between 100 and 50) | > 5 µM
44 | CNC(=O)c1cc(-c2ccccc2)nc(N2CCCCC2)n1 [Compound 232] | + (+ corresponds to Efficacy less than 50) | 1 to 5 µM
